Laboratory results published in PubChem BioAssay (NCI).
Values joined by “and” are separate entries in the source; they are usually repeats but may differ in a detail not shown here. Equal values may be shown once.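 How tested: cells in 96-well plates exposed to compound for 48 hours at five concentrations. Here, GI50 denotes the concentration required for 50% inhibition of growth. TGI is the concentration that stops growth completely.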

Tests used:
Experiment in all cases: NCI tumour cell line growth inhibition, 48 h
786-0 renal = tested on: 786-0 renal
EKVX NSCLC = tested on: EKVX NSCLC
HT29 colon = tested on: HT29 colon
IGROV1 ovarian = tested on: IGROV1 ovarian
K-562 leukemia = tested on: K-562 leukemia
MALME-3M melanoma = tested on: MALME-3M melanoma
OVCAR-5 ovarian = tested on: OVCAR-5 ovarian
SN12C renal = tested on: SN12C renal
SR leukemia = tested on: SR leukemia
UACC-62 melanoma = tested on: UACC-62 melanoma

Row | Structure (SMILES) | GI50 (786-0 renal) [µM] | TGI (786-0 renal) | GI50 (EKVX NSCLC) [µM] | TGI (EKVX NSCLC) | GI50 (HT29 colon) [µM] | TGI (HT29 colon) [µM] | GI50 (IGROV1 ovarian) [nM] | TGI (IGROV1 ovarian) | TGI (K-562 leukemia) | TGI (MALME-3M melanoma) | TGI (OVCAR-5 ovarian) [µM] | GI50 (SN12C renal) [µM] | TGI (SN12C renal) | TGI (SR leukemia) [µM] | TGI (UACC-62 melanoma) [µM] | GI50 (K-562 leukemia) [nM] | GI50 (MALME-3M melanoma) | GI50 (OVCAR-5 ovarian) [µM] | GI50 (SR leukemia) [nM] | GI50 (UACC-62 melanoma) [µM]
1 | C[C@H]1CC(=O)[C@@]2(O)C#C/C=C\C#C[C@@H]3Nc4c(cc(O)c5c4C(=O)c4ccccc4C5=O)[C@]24O[C@]314 | 0.00435 | 0.106 µM and 0.262 µM | 0.292 | 0.885 µM and 1.4 µM | 0.0253 | > 25 | 2.5 | 0.452 µM and 0.7 µM | 0.233 µM and 0.605 µM | 0.518 µM | 0.679 | 0.0025 | 0.0288 µM and 0.0201 µM | 0.0426 | 0.133 |  |  |  |  | 
2 | CC(C)S(=O)(=O)n1c(N)nc2ccc(/C(=N/O)c3ccccc3)cc21 |  | > 100 µM |  | 59.1 µM |  | 36.8 |  | 48 µM | > 100 µM | > 100 µM | 58.7 |  | > 100 µM | 27.2 | 81.8 |  |  |  |  | 
3 | O=C(O)CCN1C(=O)/C(=C/C(Cl)=C/c2ccccc2)SC1=S | 3.23 | 10.5 µM | 3.75 | 14.2 µM | 2.57 | 5.88 | 2420 | 6.98 µM | 6.26 µM | 5.23 µM | 6.8 | 2.67 | 9.41 µM | 5.47 | 3.42 | 1880 | 2.22 µM | 2.77 | 929 | 1.52
4 | CC(C)=CCC[C@](C)(O)[C@H]1CC[C@]2(C)[C@@H]1CC[C@@H]1[C@@]3(C)CC[C@H](OC(=O)CCC(=O)O)C(C)(C)[C@@H]3CC[C@]12C | > 100 | > 100 µM | 37.9 | > 100 µM | 29.2 | > 100 | 18500 | 72.7 µM | > 100 µM | 38.6 µM | 96.3 | 25.5 | 78.1 µM | 56.5 | 32.5 | 23800 | 16.8 µM | 28.8 | 19400 | 15
5 | CCn1c(-c2cc3ccccc3cc2OC(=O)c2ccccc2)n[nH]c1=S | > 50 | > 50 µM | 10.7 | > 50 µM | 42.4 | > 50 | 1510 | 8.54 µM | > 50 µM | > 50 µM | > 50 | 35.9 | > 50 µM | > 50 | > 50 | 22500 | > 50 µM | > 50 | 19800 | 28.8
6 | O=C(O)C(O)C(O)C1[O][Sb][O]C1CO (stereo not given) | > 100 | > 100 µM | > 100 | > 100 µM | > 100 | > 100 | > 100000 | > 100 µM | > 100 µM | 68.3 µM and 23.6 µM | > 100 | > 100 | > 100 µM | > 100 | > 100 | > 100000 | 23.6 µM and 7.62 µM | > 100 | > 100000 | > 100
7 | C[C@@H]1CC[C@H]2C(CN3CCN(CC4=C(C(F)(F)F)O[C@@H]5O[C@@]6(C)CC[C@H]7[C@H](C)CC[C@@H]4[C@@]57OO6)CC3)=C(C(F)(F)F)O[C@@H]3O[C@@]4(C)CC[C@@H]1[C@]32OO4 | 1.8 | > 37.3 µM | 3.14 | > 100 µM | 1.42 | > 100 | > 27400 | > 100 µM | > 100 µM | > 25.8 µM | > 100 | 3.85 | > 100 µM | > 100 | > 100 | 1090 | 2.23 µM | 1.45 | 1890 | 6.35
8 | COc1cc(C(=O)c2c(-c3ccccc3)oc3ccccc23)cc(OC)c1O | 4.15 | 17 µM | 3.85 | 58.2 µM | 9.78 | > 100 | 2600 | 18.7 µM | 44.5 µM | 20.5 µM | 32.6 | 5.23 | 26.3 µM | 23.9 | 16 | 400 | 1.13 µM | 4.64 | 377 | 0.975
